The values that follow are results of earlier work, collected in patent publication US6936590B2, “C-aryl glucoside SGLT2 inhibitors and method” (Bristol Myers Squibb Company, priority 2001, dated 2005).

One series concerns the target T1, human SGLT1 (Homo sapiens, UniProt P13866).
T1 sequence (P13866 1-664): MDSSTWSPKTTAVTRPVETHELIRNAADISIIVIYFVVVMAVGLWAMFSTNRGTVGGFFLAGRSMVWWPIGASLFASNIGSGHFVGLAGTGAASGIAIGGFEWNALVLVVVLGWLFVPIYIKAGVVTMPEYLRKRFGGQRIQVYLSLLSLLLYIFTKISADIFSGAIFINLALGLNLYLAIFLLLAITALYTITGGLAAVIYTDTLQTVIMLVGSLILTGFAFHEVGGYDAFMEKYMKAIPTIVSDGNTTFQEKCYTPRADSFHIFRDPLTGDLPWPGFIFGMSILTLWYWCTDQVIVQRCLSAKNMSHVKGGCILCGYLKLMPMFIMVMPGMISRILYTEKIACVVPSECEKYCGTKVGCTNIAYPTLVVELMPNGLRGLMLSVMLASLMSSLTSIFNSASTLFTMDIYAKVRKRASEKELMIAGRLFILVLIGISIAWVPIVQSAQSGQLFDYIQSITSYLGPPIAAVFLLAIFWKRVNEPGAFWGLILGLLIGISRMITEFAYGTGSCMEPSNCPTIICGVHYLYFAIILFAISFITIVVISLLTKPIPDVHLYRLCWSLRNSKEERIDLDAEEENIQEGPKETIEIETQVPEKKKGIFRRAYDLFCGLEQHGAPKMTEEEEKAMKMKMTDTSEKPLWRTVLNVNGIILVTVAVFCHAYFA
The settings on record: read-out: Km values for uptake.

In the next series the target is T2, human SGLT2 (Homo sapiens, UniProt P31639).
T2 sequence (P31639 1-672): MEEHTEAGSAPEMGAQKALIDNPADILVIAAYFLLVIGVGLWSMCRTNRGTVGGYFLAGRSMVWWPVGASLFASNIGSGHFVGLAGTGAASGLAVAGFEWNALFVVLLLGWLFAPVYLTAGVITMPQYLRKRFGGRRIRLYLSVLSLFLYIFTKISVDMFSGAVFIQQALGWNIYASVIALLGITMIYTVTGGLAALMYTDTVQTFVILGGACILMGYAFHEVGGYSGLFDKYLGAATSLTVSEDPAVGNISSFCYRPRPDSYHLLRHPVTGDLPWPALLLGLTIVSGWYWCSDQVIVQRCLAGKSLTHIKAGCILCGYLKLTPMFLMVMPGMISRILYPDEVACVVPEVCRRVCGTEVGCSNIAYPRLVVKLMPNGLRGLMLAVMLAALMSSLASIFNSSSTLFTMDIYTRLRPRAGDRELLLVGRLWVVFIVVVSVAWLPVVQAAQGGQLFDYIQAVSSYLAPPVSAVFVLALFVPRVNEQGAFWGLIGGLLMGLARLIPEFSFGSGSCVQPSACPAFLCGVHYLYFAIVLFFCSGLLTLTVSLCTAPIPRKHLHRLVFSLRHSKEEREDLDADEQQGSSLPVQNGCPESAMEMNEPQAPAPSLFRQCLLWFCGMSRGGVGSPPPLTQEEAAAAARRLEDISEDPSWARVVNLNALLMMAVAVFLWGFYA
The settings on record: read-out: Km values for uptake.

Molecules are shown by their SMILES.

In the case of `O=C(CCc1ccc(O)cc1)c1c(O)cc(O)cc1O[C@@H]1O[C@H](CO)[C@@H](O)[C@H](O)[C@H]1O` [phlorizin], in the series on SGLT activity (phlorizin treatment for as long as two weeks), the “adverse effects on plasma ion balance, renal function or renal morphology” value is “No adverse effects on plasma ion balance, renal function or renal morphology have been observed”. Further, the “effect on glucose excretion and plasma glucose” value with SGLT activity (several diabetic rodent models and one canine diabetes model) is “promoting glucose excretion, lowering fasting and fed plasma glucose, and promoting glucose utilization without hypoglycemic side effects”.
The Km is the substrate concentration at which the rate is half of its maximum. With `CO[C@H]1O[C@H](CO)[C@@H](O)[C@H](O)[C@H]1O` [AMG, α-methyl-D-glucopyranoside], the Michaelis constant (Km) at human SGLT1 is 400 µM; on human SGLT2, 1600 µM.
